Laboratory results published in paper PMC6571673, “Cytostatic and Cytotoxic Natural Products against Cancer Cell Models” (Molecules, 2019).

Key:
Type in all cases: cell-based, human
[1] = system: de novo protein synthesis in MDA-MB-231; test: EZClick in-cell-click de novo protein synthesis assay; conditions: MDA-MB-231, 2 h exposure time
Text: Protein synthesis is essential in cell growth, proliferation, signaling, differentiation, and death. […] The assay includes a robust chemical method based on an alkyne containing o-propargyl-puromycin probe, which stops translation by forming covalent conjugates with nascent polypeptide chains. Truncated polypeptides are rapidly turned over by the proteasome and can be detected based on the subsequent click reaction with a fluorescent azide. To test whether these compounds (4–14) induced de novo protein synthesis inhibition, compounds were tested for a 2 h exposure time, under the same conditions as the known protein synthesis inhibitor cycloheximide (CHX) in MDA-MB-231 cell model following an in-cell-click de novo protein synthesis assay.
Biovision’s EZClick™ protein synthesis monitoring assay kit (EZClick™ Global Protein Synthesis Assay Kit, Catalog # K715-100, Milpitas, CA, USA) was used according to manufacturer’s protocol. The assay was conducted in 8-well chambered coverslips (ibidi GmbH µ-slide # 80826, Martinsried, Germany). Cells were plated at 2 × 10^4 per well and incubated at 37 °C for 12 h. Then, the cells were treated with compounds for 1.5 h and processed and stained according to protocol (representative images shown in Figure 4). Protein synthesis activity is shown in red, DNA staining is shown in green. Cycloheximide (CHX) was used as a positive control and DMSO as the negative control. Images shown were taken with a Marianas CSU-X spinning disk confocal imaging system (3i, Denver, CO, USA) configured with a Zeiss Axio Observer microscope (Carl Zeiss Inc., Thornwood, NY, USA) with diode lasers, at 63× magnification and resolution of 512 × 512 pixels (3i). For each field of view, an image stack consisting of 20 optical sections were taken at 63× magnification. The total intensity of red and green staining was quantified for the entire image stack. Six fields of view were analyzed per condition. Images shown represent a single optical section for each field of view. For each stack, the red intensity (protein synthesis) was adjusted to the green intensity (DNA content) in each image. The numbers from six images were used to calculate the average and standard deviation for each condition. Numbers were normalized to the negative control value arbitrarily set to one. The Slide viewer 6 software package was used for rendering and analysis of the images.

[2] = system: KOPN-8; test: Annexin V/PI apoptosis flow cytometry assay; conditions: KOPN-8, 24 h; 8 5 µM, 9 10 µM, 10 5 µM, 12 10 µM, 13 10 µM
Procedure: (§1) The samples were probed with AnnexinV-FITC (Roche/Boehringer Mannheim, Indianapolis, IN, USA) according to the manufacturer’s instructions. KOPN-8 or SUB-P15 cells were plated (1.00 × 10^6 cells/plate) and incubated for 12 h and incubated at 37 °C. Then, cells were treated with compounds or controls for 24 h. Cells were stained with AnnexinV-FITC, PI and the staining profiles were determined with FACScan and Cell-Quest software. For cellular DNA content, the same cell treatment as above was performed. Then, cells were fixed in cold 75% ethanol, treated with RNase and then stained with PI solution (50 µg/mL). Cell cycle distribution was analyzed with the FACSCalibur analyzer (BD Biosciences, Franklin Lakes, NJ, USA) and Cell-Quest software. The percentage of DNA content at different phases of the cell cycle was analyzed with ModFit-software (version 5.0, Verity Software House, Topsham, ME, USA).

[3] = system: SUP-B15; test: Annexin V/PI apoptosis flow cytometry assay; conditions: SUP-B15, 24 h; 8 5 µM, 9 10 µM, 10 5 µM, 12 10 µM, 13 10 µM
Procedure: as §1

Structure (SMILES): COC1=C[C@]23CCCN2CCc2cc4c(cc2[C@@H]3[C@@H]1O)OCO4 [Compound 9, cephalotaxine]
- concentration at which de novo protein synthesis is inhibited [1]: 10 µM
- live cells (Annexin-, PI-) [2]: small decrease in live cells
- live cells (Annexin-, PI-) [3]: small decrease in live cells
